These results are taken from PubChem BioAssay AID588610 (The Scripps Research Institute Molecular Screening Center, 2011).

Molecules are shown by their SMILES.

The target in this experiment is Epidermal growth factor receptor (Homo sapiens) (UniProt P00533). The experiment is described as follows: altered EGFR protein amount in cells – DLD1 cells, chemiluminescent western blot, counter-screen for KLF5 inhibitor project, late-stage follow-up (AID 588610). Conditions: DLD-1 cells, 24 h, at 10 µM; for inhibition of EGFR protein level: stronger effect = higher value; for fold change: measured here: EGFR band fold change vs DMSO. For orientation: Immunoblotting shows a protein as a band on a membrane.

As for `CN(C(=O)CNC(=O)/C=C/c1cccc(Cl)c1)C1CCS(=O)(=O)CC1`, the inhibition of EGFR protein level was -478% and the fold change was determined as 5.13.

On to `CN(C(=O)COC(=O)/C=C/c1cccc([N+](=O)[O-])c1)C1CCS(=O)(=O)C1` (stereo not given), for which the inhibition of EGFR protein level was -314% and the fold change is 3.54.

Compound `CN(C(=O)CNC(=O)/C=C/c1cccc(Cl)c1)C1CCS(=O)(=O)C1` (stereo not given) yielded a fold change of 5.24.
